Series [1] in a line: Isolated perfused rat liver (IPRL) study, recirculating. The note with it: for form eliminated with bile: mass spectrometric analysis of rat bile, precursor ion 292 mode. As to the method: Rat livers were perfused in situ using PS-1 perfusion system from Harvard Apparatus-Hugo Sachs Electronics (HA-HSE). […] The temperature of the perfusion medium was thermostatically controlled at 37 °C. In each experiment, the common bile duct was cannulated with PE-10 tubing. […] Experiments were carried out in a recirculating manner with the total volume of perfusate equal 200 mL. […] Samples of bile were collected in pre-weighed Eppendorf vials and measured by gravimetric volume at the end of perfusion period, assuming a density of 1. Perfusate was collected from the reservoir at 5 min intervals up to 45 min.
Non-compartmental estimates of hepatic pharmacokinetic parameters were determined from the outflow concentration-time profiles. The hepatic extraction ratio (ERH) was calculated according to the following equation:2 ERH=CLH/Q where CLH is a hepatic clearance (per gram of liver) and Q is a perfusate flow (per gram of liver).
The apparent hepatobiliary clearance (CLb,app) was calculated as the cumulative amount of drug excreted in bile divided by the AUC0-t of the drug in the perfusate.

The conditions of series [2]: humans ref Carlhant et al. [1990]; cited from earlier work.
Series [3] can be described thus: PK model with a metabolite compartment fitted simultaneously to i.v. and i.p. rat plasma data. As for the experimental part: (§1) Pharmacokinetic parameters were calculated by employing a non-compartmental approach, using Phoenix WinNonlin software v. 6.3 (Pharsight, USA). For i.v. administration, plasma concentration at time zero (C 0) was back-extrapolated using log-linear regression, while the maximum concentration after i.p. administration (C max) and the time to C max (t max) were obtained directly from the concentration-time data. The area under the mean plasma concentration versus time curve extrapolated to infinity (AUC0-inf) was estimated using the log/linear trapezoidal rule. AUMC0-inf was estimated by calculation of the total area under the first-moment curve by combining the trapezoid calculation of AUMC0-t and extrapolated area. The mean residence time (MRT) was calculated from AUMC0-inf/AUC0-inf. The terminal rate constant (λ z) was calculated by log-linear regression of the drug concentration data in the terminal phase and the terminal half-life (t 1/2) was calculated as 0.693/λ z. The systemic clearance (CL) was estimated from the administered dose divided by AUC0-inf. The volume of distribution at steady state (V ss) was calculated from D i.v.⋅AUMC/AUC^2, where D i.v is the dose administered i.v. in mg per kg of body weight. The concentration versus time profiles of the parent drug and metabolite following both routes of administration were also fitted simultaneously to the pharmacokinetic model with a metabolite compartment to obtain one set of parameters. During iteration process, the fraction of dose absorbed (F) was fixed to the value calculated using the following equation:1 F=AUC0−ti.p.∙Di.v./AUC0−ti.v.∙Di.p.

Series [4] is described as follows: Pharmacokinetic study in rats after single i.v. or i.p. tianeptine, non-compartmental analysis. The note with it: rat. As for the experimental part: Male Wistar rats, 13–15 weeks of age and weighing between 200 and 220 g, were used in all the experiments. They were kept under conditions of constant temperature (21–25 °C) and a relative humidity of approximately 40–65% with a standard light/dark cycle. Animals were housed in the stainless steel cages with suspended wire-mesh floors and had free access to water and the commercial rodent chow.
Six rats were used in PK experiments, and 3 days prior to the experiment, rat jugular vein was cannulated allowing for the multiple blood sampling from a single animal. […] Plasma was harvested by centrifuging at 3000 r.p.m. for 10 min and stored at − 30°C until bioanalysis. Plasma samples (100 μL) were further processed as described in “Sample preparation” section.
as §1
where AUC0-t is the area under the concentration versus time curve calculated to the last measured point and D is the dose administered.

Series [5] in a line: Stability of analytes in rat plasma (bench top, freezer, freeze/thaw, autosampler). The series is classed as in vitro ADME. The conditions noted are these: bench top 2 h, − 30°C 90 days, autosampler 10°C up to 24 h. As to the method:
The stability of analytes was determined in the battery of tests according to the appropriate guidelines. Namely, the bench top stability (for 2 h), freezer stability (at − 30°C for 90 days), freeze/thaw stability and post preparative autosampler stability (at 10°C up to 24 h). Samples were considered to be stable when 85–115% of the initial concentrations were found.

Setting [6] is: male, Wistar, in vivo, ip, 10 mg/kg.
Where [7] appears, read: male, Wistar, in vivo, iv, 1 mg/kg.

Structures can show the parent of a compound that is named as a salt.

For orientation: half-life means the time needed for the level to fall by half in the phase considered. As a reminder, the Cmax is the highest concentration seen after dosing. By MRT is commonly meant the average time that molecules of a dose stay in the body. Usually Tmax stands for the time at which the peak concentration occurs.

As to `CN1c2ccccc2C(NCCCCC(=O)O)c2ccc(Cl)cc2S1(=O)=O` (centres unmarked) [MC5, tianeptine metabolite MC5 sodium salt], the “metabolic ratio of MC5 (AUC0-t metabolite / AUC0-t tianeptine)” value in series [1] (isolated perfused rat liver, mean ± SD) came to 18.76 ± 8.11%. Moreover, the “form eliminated with bile” value in series [1] is “glucuronide and glutamine conjugates”. Also, the “percent eliminated into the bile” value in series [1] (up to 45 min of perfusion, mean ± SD) is 3.07 ± 0.66 % of the administered dose. In series [2], the “time to C max” value is 2.96 ± 0.95 h. In series [3] (male, Wistar, in vivo), the half-life is 1.66 h and the k el was 0.000116 s⁻¹. Further, the V m/f m in series [3] (metabolite compartment, i.v. and i.p. fitted simultaneously) was found to be 2.971 L/kg. Moreover, the “time at which C max attained” value in series [4] (after both routes of administration (i.v. and i.p.) of tianeptine) worked out at 30 min. Besides, the “t 0.5λz” value in series [4] (after tianeptine i.p. 10 mg/kg, GM (90% CI), n = 3) was 3.69 (1.39–9.83) h. For the same compound, in series [4] (setting [6]), the highest concentration (Cmax) was determined as 2020 ng/mL, the mean residence time (MRT) was 4.1 h, the Tmax is 0.5 h and the k el is 5.19e-05 s⁻¹. Also, in series [4] (setting [7]), the MRT was found to be 8.28 h, the Tmax was found to be 0.4 h, the half-life was 7.53 h and the k el is 2.5e-05 s⁻¹. Further, the “overall exposure (AUC) to MC5 relative to tianeptine” value in series [4] (regardless of the route of administration) worked out at 1.2 times. Also, in series [5], the “stability in rat plasma” value is “no stability related problems”.
For `CN1c2ccccc2C(NCCCCCCC(=O)O)c2ccc(Cl)cc2S1(=O)=O` (centres unmarked) [Tianeptine, Tianeptine sodium salt, reference compound], in series [1], the “form eliminated with bile” value was “glucuronide and glutamine conjugates”.

Values taken from article PMC5778159 (Naunyn-Schmiedeberg's Archives of Pharmacology, 2017).
